A word on the inhibition: it is the relative decrease from the control value, in per cent.

This test deals with T1, human MAGL (His-hMAGL) (Homo sapiens, UniProt Q99685).
T1 construct: made in house; host or cells: Escherichia coli BL21(DE3)
T1 sequence (Q99685 1-303): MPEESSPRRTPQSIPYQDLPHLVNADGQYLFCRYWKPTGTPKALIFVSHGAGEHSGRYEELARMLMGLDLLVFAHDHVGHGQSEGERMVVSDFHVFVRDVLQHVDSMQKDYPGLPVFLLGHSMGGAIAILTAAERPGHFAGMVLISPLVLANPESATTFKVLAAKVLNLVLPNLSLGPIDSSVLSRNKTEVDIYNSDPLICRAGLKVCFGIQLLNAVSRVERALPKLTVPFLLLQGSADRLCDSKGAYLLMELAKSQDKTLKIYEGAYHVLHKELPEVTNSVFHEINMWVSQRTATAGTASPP
The test is described as follows: Measurement of MAGL inhibitory activity by mass spectrometry. The class given is biochemical. Conditions: MAGL inhibitory rate, test compound 10 μM, His-hMAGL, substrate 2-arachidonylglycerol, RapidFire-mass spectrometry. A digest of the protocol: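 His-tagged human MAGL was reacted with 150 μM 2-arachidonylglycerol substrate (stock, added by 5 μL) for 10 min at room temperature, then stopped with formic acid. Arachidonic acid product was quantified by RapidFire–triple-quadrupole MS in negative SRM mode, corrected by arachidonic acid-d8, and converted to percent inhibition.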
Regarding `CN1C(=O)Cc2cccc(-c3cccc(N4CC(N5CCN(C(=O)c6nccs6)CC5)CC4=O)c3)c21` (stereo not shown) [Example 229, 1-methyl-7-(3-(2-oxo-4-(4-(1,3-thiazol-2-ylcarbonyl)piperazin-1-yl)pyrrolidin-1-yl)phenyl)-1,3-dihydro-2H-indol-2-one], the inhibition at 10 µM amounted to 100%.

`CN1C(=O)Cc2c(-c3cccc(N4CC(N5CCN(C(=O)c6nccs6)CC5)CC4=O)c3)cccc21` (stereo not shown) [Example 230, 1-methyl-4-(3-(2-oxo-4-(4-(1,3-thiazol-2-ylcarbonyl)piperazin-1-yl)pyrrolidin-1-yl)phenyl)-1,3-dihydro-2H-indol-2-one]: the inhibition at 10 µM came to 101%.

On to `CC1(C)C(=O)Nc2cccc(-c3cccc(N4CC(N5CCN(C(=O)c6nccs6)CC5)CC4=O)c3)c21` (stereo not shown) [Example 231, 3,3-dimethyl-4-(3-(2-oxo-4-(4-(1,3-thiazol-2-ylcarbonyl)piperazin-1-yl)pyrrolidin-1-yl)phenyl)-1,3-dihydro-2H-indol-2-one], for which the inhibition at 10 µM was found to be 100%.

As for `O=C(c1cscn1)N1CCN(C2CC(=O)N(c3cccc(-c4ccccc4Cl)c3)C2)CC1` (stereo not drawn) [Example 232, 1-(2′-Chlorobiphenyl-3-yl)-4-(4-(1,3-thiazol-4-ylcarbonyl)piperazin-1-yl)pyrrolidin-2-one (optical isomer)], the inhibition at 10 µM is 99%.

Turning to `O=C(c1nccs1)N1CCN([C@@H]2CC(=O)N(c3ccc4c(ccn4-c4ccc(C(F)(F)F)nn4)c3)C2)CC1` [Example 234, (4R)-4-(4-(1,3-thiazol-2-ylcarbonyl)piperazin-1-yl)-1-(1-(6-(trifluoromethyl)pyridazin-3-yl)-1H-indol-5-yl)pyrrolidin-2-one], the inhibition at 10 µM is 98%.

Regarding `Cc1ccc(-n2ccc3cc(N4CC(N5CCN(C(=O)c6nccs6)CC5)CC4=O)ccc32)cc1` (stereo not shown) [Example 235, 1-(1-(4-methylphenyl)-1H-indol-5-yl)-4-(4-(1,3-thiazol-2-ylcarbonyl)piperazin-1-yl)pyrrolidin-2-one], the inhibition at 10 µM was found to be 100%.

As for `Cc1cccc(-n2ccc3cc(N4CC(N5CCN(C(=O)c6nccs6)CC5)CC4=O)ccc32)n1` (stereo not shown) [Example 238, 1-(1-(6-methylpyridin-2-yl)-1H-indol-5-yl)-4-(4-(1,3-thiazol-2-ylcarbonyl)piperazin-1-yl)pyrrolidin-2-one], the inhibition at 10 µM was 100%.

Take `Cc1ccc(-n2ccc3cc(N4CC(N5CCN(C(=O)c6nccs6)CC5)CC4=O)ccc32)nc1` (stereo not shown) [Example 239, 1-(1-(5-methylpyridin-2-yl)-1H-indol-5-yl)-4-(4-(1,3-thiazol-2-ylcarbonyl)piperazin-1-yl)pyrrolidin-2-one]: the inhibition at 10 µM stood at 100%.

Consider `Cc1cc(-c2ccccc2)cc(N2CC(N3CCN(C(=O)c4nccs4)CC3)CC2=O)c1` (stereo not shown) [Example 240, 1-(5-methylbiphenyl-3-yl)-4-(4-(1,3-thiazol-2-ylcarbonyl)piperazin-1-yl)pyrrolidin-2-one], for which the inhibition at 10 µM stood at 99%.

Take `O=C(c1nccs1)N1CCN(C2CC(=O)N(c3cc(-c4ccccc4)ccc3F)C2)CC1` (stereo not shown) [Example 241, 1-(4-fluorobiphenyl-3-yl)-4-(4-(1,3-thiazol-2-ylcarbonyl)piperazin-1-yl)pyrrolidin-2-one]: the inhibition at 10 µM came to 96%.

`O=C(c1nccs1)N1CCN(C2CC(=O)N(c3cc(F)cc(-c4ccccc4)c3)C2)CC1` (stereo not shown) [Example 242, 1-(5-fluorobiphenyl-3-yl)-4-(4-(1,3-thiazol-2-ylcarbonyl)piperazin-1-yl)pyrrolidin-2-one]: the inhibition at 10 µM came out at 99%.

Take `O=C(c1nccs1)N1CCN(C2CC(=O)N(c3ccc(F)c(-c4ccccc4)c3)C2)CC1` (stereo not shown) [Example 243, 1-(6-fluorobiphenyl-3-yl)-4-(4-(1,3-thiazol-2-ylcarbonyl)piperazin-1-yl)pyrrolidin-2-one]: the inhibition at 10 µM is 100%.

`O=C(c1nccs1)N1CCN(C2CC(=O)N(c3cccc(-c4ccccc4)c3F)C2)CC1` (stereo not shown) [Example 244, 1-(2-fluorobiphenyl-3-yl)-4-(4-(1,3-thiazol-2-ylcarbonyl)piperazin-1-yl)pyrrolidin-2-one]: the inhibition at 10 µM turned out to be 98%.

For the origin of these results see US9624170B2, “4-(piperrazin-1-yl)-pyrrolidin-2-one compounds as monoacylglycerol lipase (MAGL) inhibitors” (TAKEDA PHARMACEUTICAL COMPANY LIMITED, priority 2013, dated 2017).
